Test results: US7507823B2, “Process of making aripiprazole particles” (Bristol-Myers Squibb Company, priority 2004, dated 2009)
In brackets after ≈: the same amount, converted by molar mass.

Experiment: Solubility of aripiprazole in n-propanol
Format: physicochemical
Details: organic solvent or mixture; solvent n-propanol (n-PrOH)
Procedure: The solubility of aripiprazole in n-PrOH is low, only about 7 mg/ml. Therefore, a highly saturated solution could be produced with a very low solution concentration. At such low concentrations, the number of nucleation sites within the nozzle is low enough to prevent substantial blockages. When processing n-PrOH solutions at […], pressure fluctuations were reduced to a more satisfactory level of <35 bar. […] Water was again incorporated into the solution, in an attempt to produce the monohydrate. […] The sample was, however, anhydrous.

Compound `O=C1CCc2ccc(OCCCCN3CCN(c4cccc(Cl)c4Cl)CC3)cc2N1` [aripiprazole, 7-(4-[4-(2,3-dichloropheny)-1-piperazinyl]-butoxy)-3,4-dihydro carbostyril] has a solubility of about 7000 µg/mL (≈ 15.6 mM).
